The values that follow come from US20240197761A1, “FUCOSYLATION AND IMMUNE MODULATION IN CANCER” (H. LEE MOFFITT CANCER CENTER AND RESEARCH INSTITUTE, INC., priority 2021, published 2024).

“Also recorded” adds a separate entry of the source.

The test system of one experiment is HLA-DRB1 in WM793 cells. Nature of the experiment: Immunofluorescent subcellular localization of HLA-DRB1. The format is cell-based, human. The conditions noted are these: vs. vehicle (DMSO). From the text: FIGS. 18A-18F show N-linked fucosylation of HLA-DRB1 at N48 regulates its cell surface localization and is required for tumor suppression and increased TIL abundance. (a) (upper) Amino acid sequence alignments showing conservation of predicted N- and O-linked fucosylation sites in human HLA-DRB1 (N48 and T129) and mouse H2EB1 (N46 and T147). Structural modeling of the HLA-DRB1:HLA-DM (lower left) and CD4:HLA-DRB1:TCR (lower right) complexes. Potential glycosylation sites, N48 and T129, of HLA-DR1 beta chain are shown as sticks. CD4 (cyan), HLA-DRB1 (yellow), antigen peptide (magenta), and TCR (green)(lower right). (b) HLA-DRB1 peptide fragment identified by nano-LC/MS to be fucosylated on N48, with predicted HexNAc(4)Hex(3)Fuc(1) glycan structure shown above. (c) Lectin pull down (LPD) and IB analyses of EV and V5-tagged wild-type HLA-DRB1 (WT)-, HLA-DRB1 N48G (N48G)-, and HLA-DRB1 T129A (T129A)-expressing WM793 cells. (d) DMSO- or fucosyltransferase inhibitor (FUTi)-treated WM793 cells immunofluorescently stained for endogenous HLA-DRB1, KDEL (ER marker), and DAPI (20× magnification). […]

A further experiment has as its system 4T1 mouse breast tumor. Nature of the experiment: 4T1 mouse breast tumor growth ± L-fucose supplemented water. In kind it is in vivo, Balb/C mice. The conditions noted are these: 500 mM L-fucose supplemented water ad libitum from 100 mm^3 (FIG. 3H). The protocol:
To determine which immune cell populations were affected by L-fucose, another mouse melanoma model treated with control or L-fucose-supplemented water was used. […] Rather than being immunosuppressive, these cells elicit immunostimulatory activity (at this point in terms of augmenting T cell activation) (FIG. 3). […] In fact, upon reaching 100 mm^3, 4T1 mouse breast tumor-bearing Balb/C mice were provided with control or 500 mM L-fucose supplemented water ad libitum and L-fucose suppressed tumor growth by 50% (FIG. 3H). Moreover, the number of TILs increased following administration of L-fucose (FIG. 3C). We next looked at the specific populations of cells proliferating in TILs following L-fucose administration. We saw a 3.1 fold increase in MDSC cell and CD4 T cells (FIG. 3D). To verify that the increases in the TIL populations were attributed to fucosylation, we treated mice with L-fucose or 2FF (fucosylation inhibitor) and observed the change in MDSC. We observed that L-fucose increased MDSC populations, but 2FF decreased MDSC (FIG. 3E). […] This shift is depicted in FIG. 4.

Experiment [1] deals with MDSCs co-cultured with T cells. Briefly: MDSC immunosuppression of T cell proliferation (Cell Trace Violet) and IFNγ release/production in co-culture. The following applies: for T cell proliferation with pretreated splenic MDSCs: FIG. 3F; for IFNγ release / production by T cells with modulated MDSCs: FIG. 3G, FIG. 8B. The format is cell-based, mouse. The protocol:
Tlhe myeloid cells, which were stimulated to imlmuno, suppressive MDSCs using GM/G-CSF, were divided into 3 treatment groups: (i) Treatment±250 uM L-fuc prior, duri ng, and after GM/G-CSF stimulation. Treatment±250 uM L-fuc during and after GM/G-CSF stimulation. (ii) Treatment±250 uM L-fuc only after GM/G-CSF stimulation. Greiss assay timepoints reier to hours after initial dose of L-fuc regardless of when cells were treated, L-fuc abrogated their ability to glenerate NO. […] We subsequently co-cultured the modulated MDSCs wilh T cells, which were then activated or not with CD3/CD28 beads and measured for IFNψ production. *. p •<0.05

For the molecule `CC(=O)OC1O[C@@H](C)[C@@H](OC(C)=O)[C@@H](OC(C)=O)[C@@H]1F` (stereo partly drawn) [FUTi, 2F-peracteyl-fucose, reference compound], in the experiment on HLA-DRB1 in WM793 cells, the “subcellular localization of HLA-DRB1” value was “dimmer, more central, endoplasmic reticulum-co-localization of HLA-DRB1”.
`C[C@H](O)[C@@H](O)[C@@H](O)[C@H](O)C=O` [L-fucose]: the “suppression of tumor growth” value with 4T1 mouse breast tumor was determined as 50%. Further, in experiment [1], the “T cell proliferation with pretreated splenic MDSCs” value was “increased” and the “IFNγ release / production by T cells with modulated MDSCs” value is “increased”. Further, in experiment [1] (listed as L-fuc), the “T cell proliferation with pretreated splenic MDSCs” value is “decreases splenic MDSC immunosuppression” and the “IFNγ release / production by T cells with modulated MDSCs” value is “significantly stimulated; also recorded: decreases splenic MDSC immunosuppression”.
